# Measured values taken from PMC9139979, “Features of ZED1227: The First-In-Class Tissue Transglutaminase Inhibitor Undergoing Clinical Evaluation for the Treatment of Celiac Disease” (Cells, 2022).
# Tests used:
# [1] = system: healthy female and male volunteers; assay: Phase 1 clinical trial in healthy individuals; format: in vivo, human
# Description: The phase 1 clinical trial involved more than 100 healthy individuals exposed to up to 500 mg of ZED1227. […] Accordingly, the new chemical entity was progressed to a phase 2a clinical study. The efficacy and safety of a 6-week treatment with ZED1227 was assessed in a randomized, double-blind, placebo-controlled, dose-finding trial at three dose levels (10, 50, 100 mg). In this trial, adult patients with well-controlled celiac disease were challenged with 3 g daily gluten intake to assess the protective effect of ZED1227 on the mucosa. […] Based on the promising results a phase 2b study was initiated in celiac disease patients suffering from symptoms despite following a “gluten-free diet”—essentially an adjunct treatment. There will be no gluten challenge in this “real-life” study, which aims to further substantiate the protective effect of ZED1227 and impact on quality of life in celiac disease patients. It remains to be seen whether the promising clinical data obtained so far translate into a viable, commercially successful drug for patient benefit.
# [2] = Reactivity towards thiols (excess glutathione); format: physicochemical; conditions: 160-fold excess GSH, 25 °C, after 48 h
# Description: To exclude undesired reactions of ZED1227 with biological thiols, an investigation was performed with the tripeptide glutathione (GSH) as a surrogate. ZED1227 (60 μM) was incubated with a 160-fold excess of glutathione (10,000 μM) in aqueous media [containing 7% (v/v) tetrahydrofuran and 13% (v/v) methanol] at ambient temperature (25 °C). The parent compound and the GSH-adduct formed after 48 h were determined by HPLC (vide supra).
# [3] = Stability in PBS and artificial gastric and intestinal fluid (residual parent compound); format: physicochemical; conditions: for Stability in PBS/saline (residual parent compound): initial 100 μM
# Description: The logD value (distribution coefficient) of the compound was determined by means of the shake flask method, measuring the distribution of the solute in octanol and phosphate-buffered saline (PBS, pH 7.4). The concentration of ZED1227 in the immiscible solvents was determined by HPLC (vide supra). The stability in PBS (pH 7.4 or acidified to pH 5.0), in artificial gastric, and intestinal fluid was calculated as the percentage of residual parent compound after incubation for 24 h at 37 °C, using an initial concentration of 100 μM.
# hTG3 = target: T1, hTG3 (Homo sapiens, UniProt Q08188); assay: Fluorescent transamidation assay (DCC-assay), hTG3; format: biochemical
# T1 construct: purchased Zedira T013
# T1 sequence (Q08188 2-467 limits assumed): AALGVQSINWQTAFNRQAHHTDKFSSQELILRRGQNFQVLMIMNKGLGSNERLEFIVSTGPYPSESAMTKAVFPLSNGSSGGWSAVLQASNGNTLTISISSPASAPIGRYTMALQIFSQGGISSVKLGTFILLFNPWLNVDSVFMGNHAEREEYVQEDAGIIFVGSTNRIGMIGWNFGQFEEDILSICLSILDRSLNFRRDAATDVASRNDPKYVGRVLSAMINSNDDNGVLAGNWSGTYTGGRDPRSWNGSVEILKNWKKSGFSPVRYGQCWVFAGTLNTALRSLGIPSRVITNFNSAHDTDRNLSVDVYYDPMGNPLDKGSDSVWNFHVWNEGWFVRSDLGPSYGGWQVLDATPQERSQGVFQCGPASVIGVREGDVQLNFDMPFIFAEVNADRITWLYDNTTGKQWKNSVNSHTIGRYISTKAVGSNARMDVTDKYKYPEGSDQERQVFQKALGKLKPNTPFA
# T1 sequence (Q08188 468-693 partner limits assumed): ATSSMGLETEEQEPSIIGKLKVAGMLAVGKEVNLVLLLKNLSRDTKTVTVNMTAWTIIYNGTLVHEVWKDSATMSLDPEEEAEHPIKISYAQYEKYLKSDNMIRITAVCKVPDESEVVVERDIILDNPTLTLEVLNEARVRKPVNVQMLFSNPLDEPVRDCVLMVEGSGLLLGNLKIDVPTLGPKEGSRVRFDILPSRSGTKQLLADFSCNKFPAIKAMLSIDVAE
smiles,measurement,setting,value
"CCC(CC)CNC(=O)Cn1cccc(NC(=O)[C@H](CC/C=C/C(=O)OC)NC(=O)c2cncn2C)c1=O [ZED1227, (S,E)-Methyl 7-(1-(2-(2-ethylbutylamino)-2-oxoethyl)-2-oxo-1,2-dihydropyridin-3-ylamino)-6-(1-methyl-1H-imidazole-5-carboxamido)-7-oxohept-2-enoate]","Safety and tolerability, phase 1","[1]; more than 100 healthy individuals, up to 500 mg, EudraCT 2014-003044-13 and 2015-005283-42",safe and well-tolerated
same,"Overall safety and tolerability, phase 1 and phase 2a",[1]; more than 100 healthy volunteers and 123 patients in verum groups,safe and well-tolerated
same,Reactivity towards excess glutathione: parent drug compound recovery,[2]; 60 μM compound,98% parent drug compound recovery (after 48 h)
same,Glutathione-adduct formed,[2],2%
same,Recovery at low pH and in simulated gastric and intestinal fluid,"[3]; after 24 h, summary statement",> 80%
same,Stability in PBS/saline (residual parent compound),"[3]; pH 5.0, 24 h, 37 °C",89%
same,Stability in PBS/saline (residual parent compound),"[3]; pH 7.4, 24 h, 37 °C",10%
same,Stability in artificial gastric fluid (residual parent compound),"[3]; simulated gastric fluid pH 1.2, 24 h, 37 °C",95%
same,Stability in artificial intestinal fluid (residual parent compound),"[3]; simulated intestinal fluid pH 6.5, 24 h, 37 °C",82%
same,Selectivity hTG3 versus hTG2,hTG3; ratio of app. IC50 values,>900 fold
same,IC50,"hTG3; recombinant, activated hTG3a, transamidation assay, read-out: App. IC50 hTG3",> 50 µM
